In brackets after ≈: the same amount, converted by molar mass.
Tests used:
Assay in all cases: ≥ marks a high value that may be exact or a test limit, other limits are often not marked, values filed in µg/mL are converted to µM
[1] = tested on: Escherichia coli ATCC 25922
[2] = tested on: Pseudomonas aeruginosa ATCC 27853
Escherichia coli = tested on: Escherichia coli
Staphylococcus aureus = tested on: Staphylococcus aureus
[3] = tested on: Staphylococcus aureus ATCC 25923
[4] = tested on: Staphylococcus epidermidis ATCC 12228

Structure (SMILES)	MIC [1] [µM]	MIC [2] [µM]	MIC [3] [µM]	other results
CC[C@H](C)[C@H](NC(=O)[C@H](CC(=O)O)NC(=O)[C@@H](NC(=O)[C@@H](NC(=O)CN)C(C)C)C(C)C)C(=O)N[C@@H](CC(C)C)C(=O)N[C@@H](CCCCN)C(=O)NCC(=O)N[C@@H](C)C(=O)N[C@@H](C)C(=O)N[C@@H](CCCCN)C(=O)N[C@@H](CC(=O)O)C(=O)N[C@@H](CC(C)C)C(=O)N[C@@H](C)C(=O)NCC(=O)N[C@@H](Cc1cnc[nH]1)C(=O)N[C@@H](CC(C)C)C(=O)N[C@@H](C)C(=O)N[C@@H](CO)C(=O)N[C@@H](CCCCN)C(=O)N[C@H](C(=O)O)C(C)C [GVVDILKGAAKDLAGHLASKV]	60.6 (≈ 125 µg/mL)	–	–	–
NCCCC[C@H](NC(=O)[C@H](CCCCN)NC(=O)[C@H](CCCCN)NC(=O)[C@H](CCCN=C(N)N)NC(=O)[C@H](CCCN=C(N)N)NC(=O)[C@H](Cc1ccc(O)cc1)NC(=O)[C@@H](N)CCCN=C(N)N)C(N)=O [RYRRKKK]	> 100	> 100	–	–
CC(C)C[C@H](NC(=O)[C@H](CO)NC(=O)[C@@H](N)CCCCN)C(=O)N[C@@H](CCCN=C(N)N)C(=O)N[C@@H](CCCN=C(N)N)C(=O)N[C@H](C(=O)N[C@@H](Cc1c[nH]c2ccccc12)C(=O)N[C@@H](CCCN=C(N)N)C(=O)N[C@@H](CO)C(=O)N[C@@H](Cc1c[nH]c2ccccc12)C(=O)N[C@@H](CCCN=C(N)N)C(N)=O)C(C)C [KSLRRVWRSWR]	30 (≈ 45.9 µg/mL)	40 (≈ 61.2 µg/mL)	60 (≈ 91.7 µg/mL)	–
CC[C@H](C)[C@H](NC(=O)[C@@H](NC(=O)[C@H](Cc1ccccc1)NC(=O)[C@H](CCCCN)NC(=O)[C@H](C)NC(=O)[C@H](CC(C)C)NC(=O)[C@H](CCCCN)NC(=O)CNC(=O)[C@H](CC(C)C)NC(=O)[C@@H](NC(=O)[C@@H](NC(=O)CNC(=O)[C@H](C)NC(=O)[C@H](C)NC(=O)[C@@H](NC(=O)[C@H](C)NC(=O)[C@H](CCSC)NC(=O)CN)[C@@H](C)O)[C@@H](C)O)[C@@H](C)O)C(C)C)C(=O)NCC(=O)N[C@@H](C)C(=O)N[C@H](C(N)=O)C(C)C [GMATAAGTTLGKLAKFVIGAV]	–	–	–	MIC (Escherichia coli): > 80 µM; MIC (Staphylococcus aureus): > 80 µM
CC[C@H](C)[C@H](NC(=O)[C@H](Cc1ccc(O)cc1)NC(=O)[C@H](CCC(N)=O)NC(=O)[C@H](CC(C)C)NC(=O)[C@H](C)NC(=O)[C@H](CCCCN)NC(=O)[C@H](CCCCN)NC(=O)[C@H](CCSC)NC(=O)[C@H](CCCCN)NC(=O)[C@@H](N)CCCCN)C(=O)N[C@@H](CCCCN)C(=O)N[C@@H](CC(C)C)C(=O)N[C@@H](CC(C)C)C(=O)N[C@@H](CCCCN)C(=O)N[C@@H](CCC(=O)O)C(N)=O [KKMKKALQYIKLLKE]	> 100	> 100	–	–
CC(C)C[C@H](NC(=O)[C@H](CCCCN)NC(=O)CNC(=O)[C@@H](N)CO)C(=O)N[C@@H](CS)C(=O)N[C@@H](CS)C(=O)N[C@@H](CCCN=C(N)N)C(=O)N[C@@H](CCCN=C(N)N)C(=O)N[C@@H](CCCCN)C(=O)N[C@@H](CCCCN)C(N)=O [SGKLCCRRKK]	–	> 100	> 100	–
CC[C@H](C)[C@H](NC(=O)[C@H](CCCCN)NC(=O)[C@@H]1CCCN1C(=O)[C@@H](NC(=O)[C@H](CC(C)C)NC(=O)[C@H](C)NC(=O)[C@H](Cc1ccccc1)NC(=O)[C@H](Cc1ccccc1)NC(=O)CN)[C@@H](C)CC)C(=O)N[C@H](C(=O)N[C@@H](CO)C(=O)N[C@@H](CO)C(=O)N1CCC[C@H]1C(=O)N[C@@H](CC(C)C)C(=O)N[C@@H](Cc1ccccc1)C(=O)N[C@@H](CCCCN)C(=O)N[C@H](C(=O)N[C@@H](CC(C)C)C(N)=O)[C@@H](C)O)[C@@H](C)CC [GFFALIPKIISSPLFKTL]	–	–	–	MIC (Escherichia coli): 17.1 µM (≈ 34 µg/mL)
CC[C@H](C)[C@H](NC(=O)CNC(=O)[C@H](CO)NC(=O)[C@H](CCCN=C(N)N)NC(=O)[C@@H](NC(=O)CNC(=O)[C@H](Cc1c[nH]c2ccccc12)NC(=O)[C@H](CC(C)C)NC(=O)[C@H](CC(=O)O)NC(=O)[C@@H](NC(=O)[C@H](CCCCN)NC(=O)[C@H](CC(C)C)NC(=O)[C@@H](N)CCC(N)=O)C(C)C)[C@@H](C)O)C(N)=O [QLKVDLWGTRSGI]	> 100	> 100	> 100	–
CC[C@H](C)[C@H](NC(=O)CNC(=O)[C@H](CC(C)C)NC(=O)[C@@H](NC(=O)[C@@H](N)Cc1ccc(O)cc1)[C@@H](C)O)C(=O)N[C@@H](CCCCN)C(=O)N[C@H](C(=O)N[C@@H](CC(C)C)C(=O)N[C@@H](Cc1c[nH]c2ccccc12)C(=O)N[C@@H](CO)C(=O)N[C@@H](C)C(=O)N[C@@H](Cc1ccc(O)cc1)C(=O)N[C@@H](CCCCN)C(=O)N[C@@H](Cc1cnc[nH]1)C(=O)O)[C@@H](C)CC [YTLGIKILWSAYKH]	–	–	–	MIC [4]: 50 µM (≈ 84.7 µg/mL)
CC[C@H](C)[C@H](NC(=O)[C@H](CCCCN)NC(=O)[C@H](CC(C)C)NC(=O)CNC(=O)[C@H](C)NC(=O)[C@H](CCCCN)NC(=O)[C@H](CC(C)C)NC(=O)[C@H](C)NC(=O)[C@H](CCCCN)NC(=O)CNC(=O)[C@H](CC(C)C)NC(=O)[C@H](Cc1ccccc1)NC(=O)[C@H](CO)NC(=O)[C@H](C)NC(=O)[C@H](CC(C)C)NC(=O)CN)C(=O)NCC(=O)N[C@@H](CO)C(=O)N[C@@H](Cc1cnc[nH]1)C(=O)N[C@@H](CC(C)C)C(=O)N[C@@H](CC(C)C)C(=O)NCC(=O)NCC(=O)N[C@@H](C)C(=O)N1CCC[C@H]1C(=O)N[C@@H](CCC(N)=O)C(=O)N[C@@H](CCC(N)=O)C(=O)O [GLASFLGKALKAGLKIGSHLLGGAPQQ]	–	–	–	MIC (Escherichia coli): 25 µM (≈ 65.8 µg/mL); MIC (Staphylococcus aureus): 6 µM (≈ 15.8 µg/mL)
CSCC[C@H](NC(=O)[C@H](CCCCN)NC(=O)[C@H](CCCCN)NC(=O)[C@H](CCCCN)NC(=O)[C@H](CCCN=C(N)N)NC(=O)[C@H](CCCN=C(N)N)NC(=O)[C@H](Cc1ccc(O)cc1)NC(=O)[C@@H](N)CCCN=C(N)N)C(=O)N[C@@H](CCCCN)C(=O)N[C@@H](CCCCN)C(=O)N[C@@H](C)C(N)=O [RYRRKKKMKKA]	> 100	> 100	–	–
CC[C@H](C)[C@H](NC(=O)[C@H](CCCN=C(N)N)NC(=O)[C@H](CCCCN)NC(=O)[C@H](CC(C)C)NC(=O)[C@H](CC(C)C)NC(=O)CN)C(=O)N[C@@H](CCCCN)C(=O)N[C@H](C(=O)N[C@@H](C)C(=O)N[C@@H](CC(C)C)C(N)=O)[C@@H](C)O [GLLKRIKTAL]	44 (≈ 49 µg/mL)	–	> 27.9	–

The remaining compounds from weak to strong by MIC [1], led by results:

MIC [1] [µM]	MIC [2] [µM]	MIC [3] [µM]	Structure (SMILES)	other results
22.6 (≈ 41.5 µg/mL)	–	–	CC(C)C[C@H](NC(=O)[C@H](Cc1ccccc1)NC(=O)[C@@H]1CCCN1C(=O)[C@H](Cc1ccc(O)cc1)NC(=O)[C@H](Cc1ccc(O)cc1)NC(=O)[C@H](Cc1ccc(O)cc1)NC(=O)[C@@H]1CCCN1C(=O)[C@H](Cc1ccccc1)NC(=O)[C@H](CCCN=C(N)N)NC(=O)[C@H](CCCN=C(N)N)NC(=O)[C@@H](N)C(C)C)C(=O)N[C@@H](CCCN=C(N)N)C(=O)N[C@@H](CCCN=C(N)N)C(N)=O [VRRFPYYYPFLRR]	MIC (Escherichia coli): 27.3 µM (≈ 50 µg/mL); MIC (Staphylococcus aureus): 12.2 µM (≈ 22.3 µg/mL)
16 (≈ 43.5 µg/mL)	–	–	CC[C@H](C)[C@H](NC(=O)CN)C(=O)N[C@@H](CCCCN)C(=O)N[C@@H](CCCCN)C(=O)N[C@@H](Cc1ccccc1)C(=O)N[C@@H](CC(C)C)C(=O)N[C@@H](Cc1cnc[nH]1)C(=O)N[C@H](C(=O)N[C@H](C(=O)N[C@@H](Cc1c[nH]c2ccccc12)C(=O)N[C@@H](CCCCN)C(=O)N[C@@H](Cc1ccccc1)C(=O)N[C@H](C(=O)N[C@@H](CCCCN)C(=O)N[C@@H](C)C(=O)N[C@@H](Cc1ccccc1)C(=O)N[C@H](C(=O)NCC(=O)N[C@@H](CCC(=O)O)C(=O)N[C@H](C(=O)N[C@@H](CCSC)C(=O)N[C@@H](CC(N)=O)C(=O)N[C@@H](CO)C(=O)O)[C@@H](C)CC)C(C)C)[C@@H](C)CC)[C@@H](C)CC)[C@@H](C)CC [GIKKFLHIIWKFIKAFVGEIMNS]	–
6.66 (≈ 7.99 µg/mL)	–	6.66 (≈ 7.99 µg/mL)	CC[C@H](C)[C@H](NC(=O)[C@H](CCCN=C(N)N)NC(=O)[C@H](CCCCN)NC(=O)[C@H](CC(C)C)NC(=O)[C@H](CC(C)C)NC(=O)CN)C(=O)N[C@@H](CCCCN)C(=O)N[C@@H](Cc1ccccc1)C(=O)N[C@@H](CC(C)C)C(=O)N[C@@H](CC(C)C)C(N)=O [GLLKRIKFLL]	–
6.3 (≈ 16.7 µg/mL)	–	–	CC[C@H](C)[C@H](NC(=O)CN)C(=O)N[C@@H](CC(C)C)C(=O)N[C@@H](CO)C(=O)N[C@@H](CO)C(=O)N[C@@H](Cc1ccccc1)C(=O)N[C@@H](CCCCN)C(=O)NCC(=O)N[C@H](C(=O)N[C@@H](C)C(=O)N[C@@H](CCCCN)C(=O)NCC(=O)N[C@H](C(=O)N[C@@H](C)C(=O)N[C@@H](CCCCN)C(=O)N[C@@H](CC(=O)O)C(=O)N[C@@H](CC(C)C)C(=O)N[C@@H](C)C(=O)NCC(=O)N[C@@H](CCCCN)C(=O)N[C@@H](CC(C)C)C(=O)N[C@@H](CC(C)C)C(=O)N[C@@H](CCC(=O)O)C(=O)N[C@H](C(=O)N[C@@H](CC(C)C)C(=O)N[C@@H](CCCCN)C(N)=O)[C@@H](C)O)C(C)C)C(C)C [GILSSFKGVAKGVAKDLAGKLLETLK]	–
4.68 (≈ 5 µg/mL)	–	9.35 (≈ 9.99 µg/mL)	CC[C@H](C)[C@H](NC(=O)[C@H](C)NC(=O)[C@H](CCCCN)NC(=O)[C@H](CC(C)C)NC(=O)[C@H](CC(C)C)NC(=O)CN)C(=O)N[C@@H](CCCCN)C(=O)N[C@H](C(=O)N[C@@H](CC(C)C)C(=O)N[C@@H](CC(C)C)C(N)=O)[C@@H](C)O [GLLKAIKTLL]	–
2 (≈ 3.47 µg/mL)	–	–	CC(C)C[C@H](NC(=O)[C@H](Cc1ccccc1)NC(=O)[C@H](C)NC(=O)[C@H](Cc1c[nH]c2ccccc12)NC(=O)[C@H](Cc1c[nH]c2ccccc12)NC(=O)[C@H](Cc1c[nH]c2ccccc12)NC(=O)[C@H](C)NC(=O)[C@H](Cc1ccccc1)NC(=O)[C@H](CCCCN)NC(=O)[C@H](CCCCN)NC(=O)[C@@H](N)C(C)C)C(=O)N[C@@H](CCCCN)C(=O)N[C@@H](CCCCN)C(N)=O [VKKFAWWWAFLKK]	–
1.75 (≈ 2 µg/mL)	–	1.75 (≈ 2 µg/mL)	CC[C@H](C)[C@H](NC(=O)[C@H](Cc1ccccc1)NC(=O)[C@H](CCCCN)NC(=O)[C@H](CC(C)C)NC(=O)[C@H](CC(C)C)NC(=O)CN)C(=O)N[C@@H](CCCCN)C(=O)N[C@H](C(=O)N[C@@H](CC(C)C)C(=O)N[C@@H](CC(C)C)C(N)=O)[C@@H](C)O [GLLKFIKTLL]	–
